Among the test systems are EKVX NSCLC; NCI/ADR-RES ovarian; A498 renal; TK-10 renal; MCF7 breast; A549 NSCLC; SNB-75 CNS; HT29 colon; SF-539 CNS; IGROV1 ovarian.
Assay in all cases: inhibition of tumour cell growth, NCI panel, 48 h

Values joined by “and” are separate entries in the source; they are usually repeats but may differ in a detail not shown here. Equal values may be shown once.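 Values below derive from 48-hour exposures of cells grown in 96-well plates, with endpoints linearly interpolated between the two concentrations bracketing the appropriate inhibition level. At the GI50, growth is halved. Definition used: TGI = concentration required for complete inhibition of growth.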

With `NC(CC(O)(c1ccccc1)c1ccccc1)c1ccccc1S` (stereo not given), the TGI in the assay on EKVX NSCLC was found to be 25.1 µM; in the assay with NCI/ADR-RES ovarian it was 33.5 µM; in the assay with A498 renal, 32.7 µM; in the assay on TK-10 renal, 29.7 µM; in the assay on MCF7 breast, 29.9 µM; with A549 NSCLC, 29.5 µM. Further, the values for the TGI in the assay with SNB-75 CNS and with HT29 colon were 28.2 µM and 37.5 µM, respectively.
Turning to `COC1(c2cccs2)c2ccccc2C(OC)(c2cccs2)c2ccccc21` (stereo not given), the TGI in the assay with EKVX NSCLC is > 100 µM; with NCI/ADR-RES ovarian it was > 100 µM; with SF-539 CNS, > 100 µM; with IGROV1 ovarian, > 100 µM; in the assay on A498 renal, 83.4 µM; with TK-10 renal, > 100 µM. For the same molecule, the TGI in the assay with MCF7 breast, with A549 NSCLC, in the assay with SNB-75 CNS and in the assay with HT29 colon was > 100 µM each time.
Turning to `Cc1cc(N2CCCC2)c([N+](=O)[O-])cc1[N+](=O)[O-]`, the TGI in the assay on EKVX NSCLC, in the assay on NCI/ADR-RES ovarian, in the assay with SF-539 CNS, in the assay on IGROV1 ovarian, in the assay on A498 renal and in the assay with MCF7 breast was > 100 µM throughout. In addition, the TGI with A549 NSCLC, with SNB-75 CNS and with HT29 colon was > 100 µM in each case.
For `COC(=O)C1=CON2C3CC4CC(C3)CC(C4)C12C` (stereo not given), the TGI with EKVX NSCLC, in the assay on NCI/ADR-RES ovarian, with SF-539 CNS, in the assay on IGROV1 ovarian, in the assay on A498 renal and in the assay on TK-10 renal was > 100 µM in each case. Further, the TGI with MCF7 breast, with A549 NSCLC, with SNB-75 CNS and in the assay on HT29 colon was > 100 µM throughout.
Turning to `O=[N+]([O-])c1ccc(N2N=C(c3ccc4ccccc4c3O)CC2c2ccc(Cl)cc2)c([N+](=O)[O-])c1` (stereo not given), the TGI in the assay with NCI/ADR-RES ovarian, in the assay on SF-539 CNS, in the assay on IGROV1 ovarian, in the assay with A498 renal, with TK-10 renal and with MCF7 breast was > 100 µM throughout. The TGI in the assay on A549 NSCLC, in the assay with SNB-75 CNS and in the assay with HT29 colon was > 100 µM each time.
Turning to `c1csc(-c2ccsc2-c2ccsc2)c1`, the TGI in the assay with EKVX NSCLC, in the assay with NCI/ADR-RES ovarian, in the assay on SF-539 CNS, in the assay with IGROV1 ovarian, in the assay with A498 renal and in the assay on TK-10 renal was > 100 µM throughout. For the same molecule, the TGI with MCF7 breast, in the assay with A549 NSCLC, in the assay on SNB-75 CNS and in the assay with HT29 colon was > 100 µM throughout.
As for `COc1cc2c(cc1OC)[C@@](C)(C(O)C(O)C(C)(C)O)NCC2` (stereo not given in full), the TGI with EKVX NSCLC, in the assay with NCI/ADR-RES ovarian, in the assay with SF-539 CNS, with IGROV1 ovarian, in the assay with A498 renal and in the assay with TK-10 renal was > 100 µM throughout. The TGI with MCF7 breast, with A549 NSCLC, with SNB-75 CNS and in the assay on HT29 colon was > 100 µM in each case.
Turning to `O=[N+]([O-])c1ccc(O)c(/C=N/c2nc(-c3ccccc3)cs2)c1`, the TGI is > 100 µM with EKVX NSCLC; > 91.4 µM in the assay with NCI/ADR-RES ovarian; 74.3 µM in the assay with IGROV1 ovarian; > 100 µM in the assay on A498 renal; > 75.4 µM with TK-10 renal; > 100 µM in the assay with MCF7 breast. In addition, the TGI in the assay with A549 NSCLC was > 100 µM; in the assay on SNB-75 CNS, 75.5 µM; in the assay with HT29 colon it was > 100 µM.
Regarding `CCCCCN(CCCCC)CC(C)(C)C(O)c1ccc(OC)c2ccccc12` (stereo not given), the TGI in the assay with EKVX NSCLC is 25.9 µM; in the assay with NCI/ADR-RES ovarian, 26.3 µM; with SF-539 CNS it was 17.6 µM; in the assay with IGROV1 ovarian it was 14.3 µM; with A498 renal it was 28.1 µM; in the assay on TK-10 renal it was 25.6 µM. Further, the TGI is 22.5 µM with MCF7 breast, 21.1 µM in the assay on A549 NSCLC, 51.9 µM with SNB-75 CNS and 16.5 µM in the assay with HT29 colon.
As for `Cc1cc(N(CCC#N)CCC#N)ccc1/C=C1\SC(=S)NC1=O`, the TGI in the assay on EKVX NSCLC, with NCI/ADR-RES ovarian, in the assay with SF-539 CNS, with IGROV1 ovarian, in the assay on A498 renal and in the assay with TK-10 renal was > 100 µM in each case. The TGI in the assay on MCF7 breast was > 100 µM; in the assay with A549 NSCLC it was > 100 µM; in the assay on SNB-75 CNS it was 93.6 µM; with HT29 colon, > 100 µM.
Turning to `CCN(CC)CCOC(=O)Cc1cccc2c(=O)cc(-c3ccccc3)oc12`, the GI50 was 25.2 µM in the assay with EKVX NSCLC; 123 µM with NCI/ADR-RES ovarian; 58.6 µM with SF-539 CNS; 82.9 µM in the assay on IGROV1 ovarian; 40.2 µM in the assay with A498 renal; 46.9 µM in the assay on MCF7 breast. Besides, the values for the GI50 in the assay with A549 NSCLC, in the assay on SNB-75 CNS and with HT29 colon were 57.4 µM, 13 µM and 530 µM, respectively. The TGI with EKVX NSCLC was 62.5 µM; with NCI/ADR-RES ovarian it was 62.5 µM and > 283 µM; in the assay with SF-539 CNS it was 62.5 µM and > 179 µM; in the assay on IGROV1 ovarian, 62.5 µM and > 216 µM; with A498 renal, 62.5 µM and > 145 µM; in the assay on TK-10 renal, 52.5 µM. For the same molecule, the TGI in the assay on MCF7 breast is 62.5 µM and > 216 µM; in the assay with A549 NSCLC, 62.5 µM and > 209 µM; in the assay with SNB-75 CNS it was 50.1 µM and 126 µM.
Turning to `CCOC(=O)C(=CN1CCNC1=S)C(=O)OCC`, the TGI in the assay with EKVX NSCLC, with NCI/ADR-RES ovarian, in the assay with SF-539 CNS, with IGROV1 ovarian, in the assay on A498 renal and in the assay with TK-10 renal was > 100 µM each time. For the same molecule, the TGI with MCF7 breast, in the assay on A549 NSCLC, in the assay with SNB-75 CNS and with HT29 colon was > 100 µM throughout. Further, the GI50 in the assay with TK-10 renal and with SNB-75 CNS was > 100 µM in each case.
Take `Nc1nc(=O)n(C2OC(CO)C(O)C2O)c2ncc(-c3ccc(-c4ccccc4)cc3)nc12` (stereo not given): the TGI in the assay with EKVX NSCLC, with NCI/ADR-RES ovarian, in the assay with SF-539 CNS, in the assay with IGROV1 ovarian, in the assay on A498 renal and with TK-10 renal was > 100 µM in each case. Also, the TGI with MCF7 breast, with A549 NSCLC, in the assay on SNB-75 CNS and in the assay on HT29 colon was > 100 µM throughout.

For the origin of these results see PubChem BioAssay (NCI).
